Results as given in patent publication US20160022621A1, “COMPOSITION FOR ORAL ADMINISTRATION FOR BINDING ALDEHYDES IN THE GASTROINTESTINAL TRACT” (BIOHIT OYJ, priority 2013, published 2016).

Tests used:
[1] = Acetaldehyde-binding: acetaldehyde and ethanol levels in gastric juice after oral L-cysteine tablets and ethanol; format: in vivo, human; conditions: L-cysteine total 200 mg oral, film-coated tablets; ethanol 0.3 g/kg, 15 vol %; all measurements
Description: An analysis was carried out after administering L-cysteine (in a total of 200 mg) or placebo, orally to subjects. This cysteine or placebo was formulated into film-coated tablets as described above, with the cysteine or the placebo in granules together with a polymer not dissolving in the stomach and an inert bulking agent. The subjects swallowed said tablets with 200 ml of water. Immediately thereafter they were given ethanol (0.3 g/kg body weight) diluted in water to 15 vol %. Gastric juice samples were collected, and their L-cysteine concentrations were determined using HPLC, and two parallel samples. […] In all measurements, the average acetaldehyde concentration of the gastric juice was 2.6 times higher with placebo than with cysteine. […] The average ethanol concentration in the gastric juice was 5.0 vol-% in the first sample, declining to 0.9 vol-% in the 40-minute sample. A positive correlation emerged between the acetaldehyde concentration and the ethanol concentration.

[2] = L-cysteine concentration in gastric juice (HPLC) after oral tablets; format: in vivo, human; conditions: after oral administration of study formulations containing L-cysteine (total 200 mg)
Description: An analysis was carried out after administering L-cysteine (in a total of 200 mg) or placebo, orally to subjects. This cysteine or placebo was formulated into film-coated tablets as described above, with the cysteine or the placebo in granules together with a polymer not dissolving in the stomach and an inert bulking agent. The subjects swallowed said tablets with 200 ml of water. Immediately thereafter they were given ethanol (0.3 g/kg body weight) diluted in water to 15 vol %.
Gastric juice samples were collected, and their L-cysteine concentrations were determined using HPLC, and two parallel samples.
The mean cysteine concentrations are represented in FIG. 2. After administration of placebo formulations, no L-cysteine was detected. No significant correlation was found between the cysteine concentration and the acetaldehyde concentration.

In the case of `N[C@@H](CS)C(=O)O` [L-cysteine], the “average acetaldehyde concentration of the gastric juice, times higher with placebo than with cysteine” value [1] is reported as 2.6 times and the “L-cysteine detected in gastric juice” value [2] is reported as “detected in the gastric juice of all subjects”.
